From patent US10538555B2, “Macrocyclic inhibitors of the PD-1/PD-L1 and CD80(B7-1)/PD-L1 protein/protein interactions” (BRISTOL-MYERS SQUIBB COMPANY, priority 2014, dated 2020)
Where two headings read alike, the source gives them in different places. *1 amine or outer side, *2 acyl side, *3 side chain or, on linkers, in order; H or OH if unused. Where a SMILES comes first, the peptide text is derived from it. Bridges are numbered along the chain shown (N, C = ends). [ ]: non-standard residue; d: D form. ξ: configuration not given here. X11 = CCCC[C@@H](C(=O)C1C[C@H](O)C[C@@H]1C(=O)[*:2])N(C)[*:1]; Trp(1-CH2COOH) = N[C@@H](Cc1cn(CC(=O)O)c2ccccc12)C(=O)O; Phe(3,4,5-F3) = N[C@@H](Cc1cc(F)c(F)c(F)c1)C(=O)O; NMePhe(4-F) = CN[C@@H](Cc1ccc(F)cc1)C(=O)O; Phe(3-Cl) = N[C@@H](Cc1cccc(Cl)c1)C(=O)O; Phe(4-CN) = N#Cc1ccc(C[C@H](N)C(=O)O)cc1; d(cisHyp) = O=C(O)[C@H]1C[C@@H](O)CN1; Bta = N[C@@H](Cc1csc2ccccc12)C(=O)O; Hyp = O=C(O)[C@@H]1C[C@@H](O)CN1; NMeF = CN[C@@H](Cc1ccccc1)C(=O)O; dPip(4-aza) = O=C(O)[C@H]1CNCCN1; dHyp = O=C(O)[C@H]1C[C@H](O)CN1; NMeNle = CCCC[C@H](NC)C(=O)O; Pip = O=C(O)[C@@H]1CCCCN1; dPip = O=C(O)[C@H]1CCCCN1; hSer = N[C@@H](CCO)C(=O)O; NMeA = CN[C@@H](C)C(=O)O; Orn = NCCC[C@H](N)C(=O)O; dNMeA = CN[C@H](C)C(=O)O; Dab = NCC[C@H](N)C(=O)O; Dap = NC[C@H](N)C(=O)O; ξP = O=C(O)C1CCCN1; Sar = CNCC(=O)O

Molecular target: T1, Human PD-L1/PD-1 (Homo sapiens, UniProt Q9NZQ7)
T1 construct: TVMV protease cleavage site (C); made in house; host or cells: HEK293T cells
Experiment: HTRF Human PD-L1/PD-1 binding assay (PD-1-Ig/PD-L1-His)
Conditions: PD-L1-His 10 nM, PD-1-Ig 20 nM
How it was run: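 HTRF read-out (665/620 nm ratio) after 30 min equilibration with Eu-cryptate anti-Ig mAb (1 nM) and APC anti-His mAb (20 nM). Peptides preincubated 15 min with PD-L1-His (10 nM), then PD-1-Ig (20 nM) added for 15 min.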

[1] = class symbol, read-out: HTRF Human PD-L1/PD-1 Binding Assay IC50 Range
[2] = read-out: HTRF Human PD-L1/PD-1 Binding Assay IC50

T1 sequence (Q9NZQ7 with tags, fused parts or gaps): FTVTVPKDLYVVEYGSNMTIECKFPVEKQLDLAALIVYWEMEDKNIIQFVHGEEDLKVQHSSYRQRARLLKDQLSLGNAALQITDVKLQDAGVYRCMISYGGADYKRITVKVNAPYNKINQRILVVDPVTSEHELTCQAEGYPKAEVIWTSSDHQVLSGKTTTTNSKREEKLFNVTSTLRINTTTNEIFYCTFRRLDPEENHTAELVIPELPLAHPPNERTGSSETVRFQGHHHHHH

SMILES	IC50 [1] [nM]	IC50 [2] [nM]
CCCC[C@H]1C(=O)N(C)[C@@H](CCCC)C(=O)N[C@@H](CCC(=O)O)C(=O)N[C@H](C(=O)NCC(N)=O)CSCC(=O)N[C@@H](Cc2ccc(O)cc2)C(=O)N2CCCC[C@H]2C(=O)N[C@@H](CC(=O)O)C(=O)N2CCC[C@H]2C(=O)N[C@@H](Cc2cnc[nH]2)C(=O)N[C@@H](CCC(N)=O)C(=O)N2C[C@H](O)C[C@H]2C(=O)N[C@@H](Cc2c[nH]c3ccccc23)C(=O)N[C@@H](CO)C(=O)N[C@@H](Cc2c[nH]c3ccccc23)C(=O)N1C [Example 1260] ({CH2CO}-Y[Pip]DPHQ[Hyp]WSW[NMeNle][NMeNle]ECG-NH2; thioether N-14)	1 to 9.9	–
CCCC[C@H]1C(=O)N2C[C@H](O)C[C@@H]2C(=O)N[C@@H](CC(=O)O)C(=O)N[C@@H](C(C)C)C(=O)N(C)[C@@H](Cc2ccccc2)C(=O)N[C@@H](CCC(=O)O)C(=O)N2CCNC[C@@H]2C(=O)N[C@@H](Cc2c[nH]c3ccccc23)C(=O)N[C@@H](Cc2ccc(O)cc2)C(=O)N[C@@H](CCCN)C(=O)N[C@H](C(=O)NCC(N)=O)CSCC(=O)N[C@@H](Cc2cccc(Cl)c2)C(=O)N(C)[C@@H](Cc2ccccc2)C(=O)N1C [Example 3647] ({CH2CO}-[Phe(3-Cl)][NMeF][NMeNle][d(cisHyp)]DV[NMeF]E[dPip(4-aza)]WY[Orn]CG-NH2; thioether N-13)	10 to 99.9	–
CCCC[C@H]1C(=O)N(C)[C@@H](CCCC)C(=O)N[C@@H](CCC(=O)O)C(=O)N[C@H](C(=O)NCC(N)=O)CSCC(=O)N[C@@H](Cc2ccc(O)cc2)C(=O)N2CCCC[C@H]2C(=O)N[C@@H](CC(=O)O)C(=O)N2CCC[C@H]2C(=O)N[C@@H](Cc2cnc[nH]2)C(=O)N[C@@H](CCC(N)=O)C(=O)N2C[C@H](O)C[C@H]2C(=O)N[C@@H](Cc2c[nH]c3ccccc23)C(=O)N[C@@H](CO)C(=O)N[C@@H](Cc2csc3ccccc23)C(=O)N1C [Example 1513] ({CH2CO}-Y[Pip]DPHQ[Hyp]WS[Bta][NMeNle][NMeNle]ECG-NH2; thioether N-14)	–	5.3
CCCC[C@H]1C(=O)N2CCC[C@@H]2C(=O)N[C@@H](CC(=O)O)C(=O)N[C@@H](C(C)C)C(=O)N(C)[C@@H](Cc2ccccc2)C(=O)N[C@@H](CC(=O)O)C(=O)N2C[C@H](O)C[C@@H]2C(=O)N[C@@H](Cc2c[nH]c3ccccc23)C(=O)N[C@@H](Cc2ccc(O)cc2)C(=O)N[C@@H](CCCCN)C(=O)N[C@H](C(=O)NCC(N)=O)CSCC(=O)N[C@@H](Cc2cc(F)c(F)c(F)c2)C(=O)N(C)[C@@H](Cc2ccccc2)C(=O)N1C [Example 10174] ({CH2CO}-[Phe(3,4,5-F3)][NMeF][NMeNle][dP]DV[NMeF]D[d(cisHyp)]WYKCG-NH2; thioether N-13)	1 to 9.9	–
CCCC[C@H]1C(=O)N(C)[C@@H](CCCC)C(=O)N[C@@H](CCC(=O)O)C(=O)N[C@H](C(=O)NCC(N)=O)CSCC(=O)N[C@@H](Cc2ccc(O)cc2)C(=O)N(C)[C@@H](C)C(=O)N[C@@H](CC(=O)O)C(=O)N2CCCC2C(=O)N[C@@H](CN)C(=O)N[C@@H](CCC(=O)O)C(=O)N2C[C@H](O)C[C@H]2C(=O)N[C@@H](Cc2c[nH]c3ccccc23)C(=O)N[C@@H](CCN)C(=O)N[C@@H](Cc2cn(CC(=O)O)c3ccccc23)C(=O)N1C (stereo partly drawn) [Example 6172] ({CH2CO}-Y[NMeA]D[ξP][Dap]E[Hyp]W[Dab][Trp(1-CH2COOH)][NMeNle][NMeNle]ECG-NH2; thioether N-14)	1 to 9.9	–
CCCC[C@H]1C(=O)N2CCC[C@@H]2C(=O)N[C@@H](CO)C(=O)N[C@@H](C(C)C)C(=O)N(C)[C@@H](Cc2ccccc2)C(=O)N[C@@H](Cc2ccc(O)cc2)C(=O)N(C)CC(=O)N[C@@H](Cc2csc3ccccc23)C(=O)N[C@@H](Cc2ccc(O)cc2)C(=O)N[C@@H](CC(C)C)C(=O)N[C@H](C(=O)NCC(N)=O)CSCC(=O)N[C@@H](Cc2ccccc2)C(=O)N(C)[C@@H](Cc2ccccc2)C(=O)N1C [Example 10063] ({CH2CO}-F[NMeF][NMeNle][dP]SV[NMeF]Y[Sar][Bta]YLCG-NH2; thioether N-13)	10 to 99.9	–
CCCC[C@H]1C(=O)N(C)[C@@H](CCCC)C(=O)N[C@@H](CCC(=O)O)C(=O)N[C@H](C(=O)NCC(N)=O)CSCC(=O)N[C@@H](Cc2ccc(OC)cc2)C(=O)N(C)[C@@H](C)C(=O)N[C@@H](CC(N)=O)C(=O)N2CCC[C@H]2C(=O)N[C@@H](Cc2cnc[nH]2)C(=O)N[C@@H](CCCCN)C(=O)N2C[C@H](O)C[C@H]2C(=O)N[C@@H](Cc2c[nH]c3ccccc23)C(=O)N[C@@H](CC(=O)O)C(=O)N[C@@H](Cc2c[nH]c3ccccc23)C(=O)N1C [Example 7115] ({CH2CO}-Y(Me)[NMeA]NPHK[Hyp]WDW[NMeNle][NMeNle]ECG-NH2; thioether N-14)	100 to 990	–
CCCC[C@H]1C(=O)N(C)[C@@H](CCCC)C(=O)N[C@@H](CC(C)C)C(=O)N[C@H](C(=O)NCC(N)=O)CSCC(=O)N[C@@H](Cc2ccc(OC)cc2)C(=O)N(C)[C@@H](C)C(=O)N[C@@H](CC(N)=O)C(=O)N2CCC[C@@H]2C(=O)N[C@@H](CN)C(=O)N[C@@H](C(C)C)C(=O)N2C[C@@H](O)C[C@@H]2C(=O)N[C@@H](Cc2c[nH]c3ccccc23)C(=O)N[C@@H](CCN)C(=O)N[C@@H](Cc2cn(CC(=O)O)c3ccccc23)C(=O)N1C [Example 7151] ({CH2CO}-Y(Me)[NMeA]N[dP][Dap]V[dHyp]W[Dab][Trp(1-CH2COOH)][NMeNle][NMeNle]LCG-NH2; thioether N-14)	1 to 9.9	–
CCCC[C@H]1C(=O)C2C[C@H](O)C[C@@H]2C(=O)N[C@@H](CC(=O)O)C(=O)N[C@@H](C(C)C)C(=O)N(C)[C@@H](Cc2ccccc2)C(=O)N[C@@H](CCC(=O)O)C(=O)N2CCCC[C@@H]2C(=O)N[C@@H](Cc2c[nH]c3ccccc23)C(=O)N[C@@H](Cc2ccc(O)cc2)C(=O)N[C@@H](CCCN)C(=O)N[C@H](C(=O)NCC(N)=O)CSCC(=O)N[C@@H](Cc2cc(F)c(F)c(F)c2)C(=O)N(C)[C@@H](Cc2ccccc2)C(=O)N1C (stereo partly drawn) [Example 3642] ({CH2CO}-[Phe(3,4,5-F3)][NMeF][X11]DV[NMeF]E[dPip]WY[Orn]CG-NH2; thioether N-12)	10 to 99.9	–
CCCC[C@H]1C(=O)N(C)[C@@H](CCCC)C(=O)N[C@@H](CCCNC(=N)N)C(=O)N[C@H](C(=O)NCC(N)=O)CSCC(=O)N[C@@H](Cc2ccc(C#N)cc2)C(=O)N(C)[C@@H](C)C(=O)N[C@@H](CC(N)=O)C(=O)N2CCC[C@H]2C(=O)N[C@@H](Cc2cnc[nH]2)C(=O)N[C@@H](CCC(=O)O)C(=O)N2C[C@H](O)C[C@H]2C(=O)N[C@@H](Cc2c[nH]c3ccccc23)C(=O)N[C@@H](CO)C(=O)N[C@@H](Cc2c[nH]c3ccccc23)C(=O)N1C [Example 7078] ({CH2CO}-[Phe(4-CN)][NMeA]NPHE[Hyp]WSW[NMeNle][NMeNle]RCG-NH2; thioether N-14)	10 to 99.9	–
CCCC[C@H]1C(=O)N(C)[C@@H](CCCC)C(=O)N[C@@H](CN)C(=O)N[C@H](C(=O)NCC(N)=O)CSCC(=O)N[C@@H](Cc2ccc(O)cc2)C(=O)N(C)[C@@H](C)C(=O)N[C@@H](CC(=O)O)C(=O)N2CCC[C@H]2C(=O)N[C@@H](Cc2cnc[nH]2)C(=O)N[C@@H](CCC(N)=O)C(=O)N2C[C@H](O)C[C@H]2C(=O)N[C@@H](Cc2c[nH]c3ccccc23)C(=O)N[C@@H](CCN)C(=O)N[C@@H](Cc2cn(CC(=O)O)c3ccccc23)C(=O)N1C [Example 5238] ({CH2CO}-Y[NMeA]DPHQ[Hyp]W[Dab][Trp(1-CH2COOH)][NMeNle][NMeNle][Dap]CG-NH2; thioether N-14)	1 to 9.9	–
CCCC[C@H]1C(=O)N(C)[C@@H](CCCC)C(=O)N[C@@H](CCCCN)C(=O)N[C@H](C(=O)NCC(N)=O)CSCC(=O)N[C@@H](Cc2ccc(O)cc2)C(=O)N(C)[C@@H](C)C(=O)N[C@@H](CC(=O)O)C(=O)N2CCC[C@H]2C(=O)N[C@@H](Cc2c[nH]cn2)C(=O)N[C@@H](CC(C)C)C(=O)N2C[C@H](O)C[C@H]2C(=O)N[C@@H](Cc2c[nH]c3ccccc23)C(=O)N[C@@H](CO)C(=O)N[C@@H](Cc2c[nH]c3ccccc23)C(=O)N1C [Example 11002] ({CH2CO}-Y[NMeA]DPHL[Hyp]WSW[NMeNle][NMeNle]KCG-NH2; thioether N-14)	1 to 9.9	–
CC(C)C[C@@H]1NC(=O)[C@H](Cc2ccc(O)cc2)NC(=O)[C@H](Cc2c[nH]c3ccccc23)NC(=O)[C@H]2CCCCN2C(=O)[C@H](Cc2ccc(O)cc2)NC(=O)[C@H](Cc2ccccc2)N(C)C(=O)[C@H](C(C)C)NC(=O)[C@H](CC(=O)O)NC(=O)[C@H]2CCCN2C(=O)[C@H](C)N(C)C(=O)[C@H](Cc2ccc(F)cc2)N(C)C(=O)[C@H](Cc2ccccc2)NC(=O)CSC[C@@H](C(=O)NCC(N)=O)NC1=O [Example 10543] ({CH2CO}-F[NMePhe(4-F)][NMeA][dP]DV[NMeF]Y[dPip]WYLCG-NH2; thioether N-13)	–	10
CC(C)C[C@@H]1NC(=O)[C@H](Cc2ccc(O)cc2)NC(=O)[C@H](Cc2c[nH]c3ccccc23)NC(=O)[C@@H](C)N(C)C(=O)[C@H](Cc2ccc(O)cc2)NC(=O)[C@H](Cc2ccccc2)N(C)C(=O)[C@H](C(C)C)NC(=O)[C@H](CCO)NC(=O)[C@@H](C)N(C)C(=O)[C@H](C)N(C)C(=O)[C@H](Cc2ccccc2)N(C)C(=O)[C@H](Cc2cc(F)c(F)c(F)c2)NC(=O)CSC[C@@H](C(=O)NCC(N)=O)NC1=O [Example 9192] ({CH2CO}-[Phe(3,4,5-F3)][NMeF][NMeA][dNMeA][hSer]V[NMeF]Y[dNMeA]WYLCG-NH2; thioether N-13)	–	14
CCCC[C@H]1C(=O)N(C)[C@@H](CCCC)C(=O)N[C@@H](CC(C)C)C(=O)N[C@H](C(=O)NCC(N)=O)CSCC(=O)N[C@@H](Cc2ccc(O)cc2)C(=O)N2CCCC[C@H]2C(=O)N[C@@H](CC(N)=O)C(=O)N2CCC[C@H]2C(=O)N[C@@H](Cc2cnc[nH]2)C(=O)N[C@@H](CCC(N)=O)C(=O)N2C[C@H](O)C[C@H]2C(=O)N[C@@H](Cc2c[nH]c3ccccc23)C(=O)N[C@@H](CO)C(=O)N[C@@H](Cc2c[nH]c3ccccc23)C(=O)N1C [Example 1273] ({CH2CO}-Y[Pip]NPHQ[Hyp]WSW[NMeNle][NMeNle]LCG-NH2; thioether N-14)	1 to 9.9	–
